A short description of experiment [1]: ITC of bivalent cation binding to plectasin in solution. Particulars: mean of duplicate, read-out: Kd, Mg^2+ binding to plectasin (ITC).
In a further experiment the test system is S. pyogenes M3. The experiment in a line: MIC assays under standard conditions. Format: cell-based, Streptococcus pyogenes. Conditions: Supplementary Table 1; cation-adjusted MHB + 5% lysed horse blood, 5% CO2, 20–24 h. The method, then: Plectasin and analogues were serially diluted in cation-adjusted Mueller–Hinton broth (MHB) in round-bottom polypropylene 96-well plates (50 µl per well). Selected bacterial strains were grown from glycerol stocks on blood agar plates. Individual colonies were inoculated in TSB and incubated at 37 °C while shaking until OD600 reached 0.5. Bacterial suspensions were then diluted 100 times in cation-adjusted MHB and distributed (50 μl per well) over the microplate containing the diluted plectasin solutions. Plates were covered by a gas-permeable adhesive membrane and incubated at 37 °C while shaking. MICs were determined by visual inspection after 16–20 h (Staphylococcus) or 20–24 h (Streptococcus). For Streptococcus strains, the broth was additionally supplemented with 5% lysed horse blood, and the microplates were incubated under 5% CO2 atmosphere. In the assays, we used the following strains: S. simulans, S. pneumoniae serotype 8, S. pneumoniae ATCC6305 and Streptococcus pyogenes M3.

Another experiment deals with S. simulans 22. The experiment is classed as cell-based, Staphylococcus simulans. Particulars: for MIC: cation-depleted MHB + 0.5 mM MgCl2 + 10 µM ZnSO4. On the procedure:
Cation-depleted MHB was prepared as previously described[18] and supplemented with MgCl2 (0.5 mM) and ZnSO4 (10 µM). Plectasin was serially diluted twofold over a 96-well polypropylene plate. Serial dilutions of Ca^2+ in calcium-depleted medium were subsequently added to the wells containing the plectasin dilution series, followed by addition of bacterial suspensions. MICs were determined by visual inspection after 16–20 h (Staphylococcus). The effect of reduced Ca^2+ levels on S. simulans growth in the absence of plectasin was assessed by monitoring growth at 37 °C by OD600 over 18 h (Supplementary Fig. 4).

The nature of experiment [2]: ITC of bivalent cation binding to plectasin in solution. Conditions: mean of duplicate, read-out: Kd, Ca^2+ binding to plectasin (ITC).
Experiment [3] is described as follows: HS-AFM oligomerization on supported lipid bilayers doped with lipid II. Particulars: DOPC/DOPG (1:1), 1% lipid II, 1 mM Ca^2+.
Experimental: HS-AFM imaging was performed on a supported lipid bilayer deposited on mica using an amplitude modulation tapping mode HS-AFM from RIBM (Ando type)[11]. The lipid compositions are as stated in the experimental conditions of the corresponding results. Short cantilevers (∼7 μm) with a nominal spring constant of 0.15 N m^−1 were used (USC-F1.2-k0.15, NanoWorld) for all experiments. A minimal imaging force was applied by using a small set-point amplitude, typically 80% of the free amplitude (for 1–2 nm of free amplitude). […] Imaging was started on the lipid bilayer surface in recording buffer. […] All reported experiments were repeated for at least three times for each condition. Image analysis was done using Igor Pro version 6.22 (Wavemetrics) with RIBM script and ImageJ version 1.501 with minimal image corrections (tilt, drift and background corrections). The time stamps on HS-AFM videos are relative to plectasin addition into the liquid chamber. Image acquisition rate varied from 0.5 frames per second to 2 frames per second (see the figure/video legends).
The test system of the next experiment is S. simulans. The experiment in a line: Bacterial permeabilization assay (DiSC2(5), SYTOX green). Format: cell-based, Staphylococcus simulans. Conditions: DiSC2(5) and SYTOX green, concentrations higher than the MIC, 20 °C. On the procedure: Overnight cultures (37 °C, TSB) of S. simulans were diluted to OD600 = 0.1 and grown until mid-log phase (OD600 = 0.5–0.8) and collected by centrifugation (2,000 × g, room temperature, 5 min). Cell pellets were washed with buffer (10 mM Tris, 50 mM NaCl and 0.5% w/v glucose at pH = 7.2), resuspended to OD600 = 10 and stored at 4 °C until use. All assays were performed on a Cary Eclipse (FL0904M005) fluorometer. Measurements were done using bacterial suspensions at OD600 = 0.05 in the aforementioned buffer under constant stirring at 20 °C in a 4 × 10 mm quartz cuvette. About 0.2 µM 3,3′-diethylthiadicarbocyanine iodide or 0.25 µM SYTOX green was added and equilibrated for 2 min before addition of an antibiotic. For 3,3′-diethylthiadicarbocyanine iodide, we used excitation and emission wavelengths of 650 nm and 670 nm, respectively, while for SYTOX green, we used 504 nm and 523 nm. About 5 nm slits were used, and fluorescence signal was averaged every 0.3 s.

Where two headings read alike, the source gives them in different places.

Usually MIC stands for the lowest concentration that inhibits growth of the organism. `CC[C@H](C)[C@@H]1NC(=O)[C@H](CO)NC(=O)[C@H](CCCCN)NC(=O)[C@@H]2CSSC[C@@H](C(=O)N[C@@H](Cc3ccc(O)cc3)C(=O)O)NC(=O)[C@H](CCCCN)NC(=O)[C@@H]3CSSC[C@H](NC(=O)[C@H](CCC(N)=O)NC(=O)[C@H](CCSC)NC(=O)[C@H](CC(=O)O)NC(=O)[C@H](CC(=O)O)NC(=O)[C@H](CCC(=O)O)NC(=O)[C@H](CC(=O)O)NC(=O)[C@H](Cc4c[nH]c5ccccc45)NC(=O)[C@@H]4CCCN4C(=O)CNC(=O)[C@H](CC(N)=O)NC(=O)[C@@H](NC(=O)CNC(=O)[C@H](Cc4ccccc4)NC(=O)CN)CSSC[C@H](NC(=O)[C@H](Cc4ccc(O)cc4)NC(=O)CNC(=O)CNC(=O)[C@H](CCCCN)NC(=O)[C@H](Cc4ccc(O)cc4)NC(=O)CNC(=O)[C@H](CCCCN)NC1=O)C(=O)N[C@@H](C)C(=O)N[C@@H](CCCCN)C(=O)NCC(=O)NCC(=O)N[C@@H](Cc1ccccc1)C(=O)N[C@@H](C(C)C)C(=O)N3)C(=O)N[C@@H](Cc1c[nH]cn1)C(=O)N[C@@H](CC(N)=O)C(=O)N[C@@H](Cc1c[nH]cn1)C(=O)N2` [Plectasin wt]: the Kd is 195 ± 35 nM in experiment [1] and 159 ± 69 nM in experiment [2]. For the same compound, the “Minimum inhibitory concentration, S. pyogenes M3” value in the experiment on S. pyogenes M3 is recorded as ≤ 0,012 μg/mL. The “improvement of antimicrobial activity with increasing Ca^2+ concentration” value with S. simulans 22 (Ca^2+ variable assay) was 4-8 fold. In addition, the MIC with S. simulans 22 (Calcium 0 mM) was 12.5 µg/mL; with S. simulans 22 (Calcium 0.31 mM), 1.56 µg/mL; in the experiment with S. simulans 22 (Calcium 0.5 mM), 1.56 µg/mL; in the experiment on S. simulans 22 (Calcium 0.63 mM), 1.56 µg/mL; in the experiment with S. simulans 22 (Calcium 1.25 mM), 1.56 to 3.13 µg/mL; in the experiment on S. simulans 22 (Calcium 2.5 mM) it was 3.13 µg/mL. Also, in experiment [3], the “plectasin concentration giving full coverage (AFM)” value is reported as 400 nM. Also, the “plectasin concentration giving partial coverage (AFM)” value in experiment [3] is on record as 300 nM. For the same compound, the “plectasin concentration above which supra-structures emerge (AFM)” value in experiment [3] (10 min after addition) was over 200 nM. Besides, in the experiment with S. simulans, the “leakage in S. simulans membranes (in words)” value is recorded as “does not cause leakage”.

(Values after article PMC11222147, “Host defence peptide plectasin targets bacterial cell wall precursor lipid II by a calcium-sensitive supramolecular mechanism” (Nature Microbiology, 2024).)
